Read-outs that look alike come from different tables or passages of the source.
Experiments:
[1] = test system: NCI-H23 (lung cancer); parameters: method as in PMID 30054973; settings: positive control, for relative comparison; read-out: Cytotoxicity (IC50) NCI-H23; cited from earlier work
[2] = test system: PC3 (prostate cancer); parameters: method as in PMID 30054973; settings: positive control, for relative comparison; read-out: Cytotoxicity (IC50) PC3; cited from earlier work
[3] = test system: SW620 cells; experiment: Morphology changes of treated cells; type: cell-based, human; settings: 24 h treatment (50 μM; 4o 5, 10, 30 μM; PAC-1 30 μM)
Experimental: (§1) Figure 7 Morphology changes of cells treated with compound 4f, 4h, 4n, 4o, 4p or PAC-1. SW620 at 2.5 × 10^5 cells/mL (500 µL in 24 well) were incubated for 24 h and then further treated with compounds or PAC-1 (50 μM) for 24 h. Cells were photographed using an Imaging Device (Celldiscoverer 7) with ×20 (A) and ×40 (B) lens. Scale bar: […]. UN untreated, VH vehicle (DMSO. 0.1%). Representative images are shown.
as §1, with “Figure 8” for “Figure 7”, “compound 4o” for “compound 4f, 4h, 4n, 4o, 4p”, “with 4o (5, 10, and 30 μM)” for “with compounds”, “PAC-1 (30” for “PAC-1 (50”

[4] = target: T1, caspase-3 (Homo sapiens, UniProt P42574); experiment: Caspase-3 activation assay in U937 cell extract; type: cell-based; settings: U937 cells, 24 h, 50 µM
T1 construct: endogenous in cells; host or cells: U937 human lymphoma cells
T1 sequence (P42574 1-277): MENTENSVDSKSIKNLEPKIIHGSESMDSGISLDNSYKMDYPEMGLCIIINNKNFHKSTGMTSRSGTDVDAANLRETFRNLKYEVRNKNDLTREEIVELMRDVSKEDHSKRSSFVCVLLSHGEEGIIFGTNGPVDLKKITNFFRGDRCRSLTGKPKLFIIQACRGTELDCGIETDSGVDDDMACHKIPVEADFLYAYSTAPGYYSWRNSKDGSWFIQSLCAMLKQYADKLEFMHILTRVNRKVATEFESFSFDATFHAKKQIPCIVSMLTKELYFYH
Experimental: Caspase-3 activation assay
Caspase activity was measured by using caspase 3 assay kit according to the manufacturer’s instructions (abcam, MA, USA). U937 human lymphoma cells (5 × 10^5/mL per well) were plated in 6-well culture plates and allowed to grow for 24 h. The cells were treated with compounds for 24 h, and then harvested. The harvested cells were washed twice with ice-cold PBS and treated with lysis buffer included in the kit. Cell lysate (100 µg/50 µL) was mixed with 50 µL of 2 × reaction buffer and 5 µL of DEVD-p-NA substrate as the instruction of caspase-3 assay kit (Abcam, cat. N. ab39401). […] was measured after one-hour incubation.
Next, we selected 5 representative compounds, including 4f, 4h, 4n, 4o and 4p, to investigate their effects on the caspase activity, cell cycle, and apoptosis. […] Thus, we used the extract of U937 cells in caspase-3 activation assay, referring to our previous study. […] However, our compounds unexpectedly were not recorded to activate caspase-3 activity. […] Next, we investigated the effect of PAC-1 and our chemicals on cell cycle and apoptosis by using U937 cells. In the cell cycle analysis, U937 cells were treated with 50 µM of compounds for 24 h, stained with propidium iodide (PI) in the presence of RNase, and then analyzed for DNA content by using flow cytometry. PAC-1 was used in parallel as a positive control.

[5] = test system: SW620 (colon cancer); experiment: SRB cytotoxicity assay, SW620; type: cell-based; settings: Homo sapiens, SW-620, 48 h incubation, mean ± SEM of 3 independent experiments
Description: (§2) Three human cancer cell lines: colon cancer (SW620), prostate cancer (PC3), and lung cancer (NCI-H23) were used for sceening the cytotoxicity of the compounds. The cancer cells were purchased from American Type Culture Collection (Manassas, VA, USA). Other reagents/media for cell culture were obtained from GIBCO (Grand Island, New York, USA). The testing cancer cells were culture in Dulbecco’s Modified Eagle Medium until confluence. Then, they were trypsinized and suspended at the level of 3 × 10^4 cells/mL of cell culture medium. On day 0, cancer cells were seeded at a volume of 180 µL/well of 96-well plates and incubated for 24 h at 37 °C in a 5% CO2 incubator. On day 1, 20 µL of various concentrations of testing compounds were added to each well of the 96-well plates. Chemicals were dissolved in dimethyl sulfoxide (DMSO, stock) and diluted in culture medium (1% DMSO) before adding to the culture. After 48 h incubation, the sulforhodamine B assay was used for cell density determination with slight modifications[22]–[26]. The Probits were used for the calculation of IC50 values. The reported IC50 were the averages of three independent screening (SD ≤ 10%)[27].
(§3) Two series of compounds synthesized (4a–p and 5a–f) were evaluated for their cytotoxicity against three human cancer cell lines, including SW620 (colon cancer), PC3 (prostate cancer), NCI-H23 (lung cancer), using SRB method as described previously[22] with slight modifications[23]–[26].

[6] = test system: NCI-H23 (lung cancer); experiment: SRB cytotoxicity assay, NCI-H23; type: cell-based; settings: Homo sapiens, 48 h incubation, mean ± SEM of 3 independent experiments
Description: as §2, §3

[7] = Cytotoxicity on normal mesenchymal stem cells; type: cell-based; settings: human bone marrow-derived mesenchymal stem cells; mean ± SEM; read-out: Cytotoxicity (IC50) MSCs
Experimental: Overally, 5-fluorinated compounds (4i–p and 5d–f) were slightly more cytotoxic than non-fluorinated ones (4a–h, 5a–c). For compounds in series 4a–p, it was observed that, electron-releasing substituents (–OCH3, OH) were generally better than electron-withdrawing groups (–Cl) for cytotoxicity. Especially, compounds with 2-OH substituents produced the best cytotoxicity. The addition of either 4-OCH3 or 3-allyl groups further enhanced cytotoxicity of the related compounds (4g, 4h and 4o, 4p).

[8] = test system: U937 human lymphoma cells; experiment: Cell cycle analysis (PI, flow cytometry); type: cell-based; settings: 50 µM, 24 h
Experimental: U937 human lymphoma cells (5 × 10^5/mL per well) were plated in 6-well culture plates and allowed to grow for 24 h. In our first experiment, we examined the effects of 4f, 4h, 4n, 4o, 4p, and PAC-1 on cell cycles at 50 µM. In the second experiment, we examined the dose-dependent effect of 4o at 5, 10, and 30 µM and PAC-1 at 30 µM on cell cycles. The cells were treated with compounds for 24 h, and then harvested. The harvested cells were washed twice with ice-cold PBS, fixed in 75% ice-cold ethanol, and stained with propidium iodide (PI) in the presence of RNase at room temperature for 30 min. The stained cells were analyzed for DNA content using a FACScalibur flow cytometer (BD Biosciences, San Jose, CA, USA) and the data were processed using Cell Quest Pro software (BD Biosciences).
(§4) Figure 3 Cell cycle analysis after treatment with some compounds. U937 human lymphoma cells were treated with compounds (50 µM) for 24 h. The harvested cells were stained with propidium iodide (PI) in the presence of RNase and then were analyzed for DNA content by using flow cytometry. Ten thousand cells were acquired (n = 3). UN untreated, VH vehicle (DMSO. 0.1%). Representative histograms (A) and bar graphs (B) are shown. p values were calculated using one-way ANOVA in GraphPad Software (San Diego, CA, USA). *p < 0.01 vs VH control.
as §4, with “Figure 4” for “Figure 3”, “analysis under” for “analysis after”, “with different concentrations of compound 4o.” for “with some compounds.”, “with compound 4o at 5, 10 and 30 µM or PAC-1 (30” for “with compounds (50”

[9] = test system: U937 cells; parameters: method as in PMID 34674294; settings: 48 h, as reported, read-out: IC50 in 48-h-cytotoxicity assay; cited from earlier work
[10] = test system: PC3 (prostate cancer); experiment: SRB cytotoxicity assay, PC3; type: cell-based; settings: Homo sapiens, 48 h incubation, mean ± SEM of 3 independent experiments
Description: as §2, §3

O=c1[nH]cc(F)c(=O)[nH]1 [Compound 5-FU, 5-Fluorouracil]
IC50 [1]: 13.5 ± 3.92 µM
IC50 [2]: 13.6 ± 0.46 µM

C=CCc1cccc(/C=N/NC(=O)CN2CCN(Cc3ccccc3)CC2)c1O [PAC-1, reference compound]
Cellular morphology [3]: showed morphology of apoptotic cells
Caspase-3 activation [4]: activated caspase-3
IC50 [5]: 5.43 ± 0.18 µM
IC50 [6]: 5.11 ± 0.22 µM
IC50 [7]: 9.22 ± 0.12 µM
Effect on cell cycle distribution [8]: accumulation of cells in G0/G1 phase
IC50 [9]: 8.47 µM
IC50 [10]: 4.11 ± 0.39 µM
